Measured values reported in patent US11834458B2, “Anti-cancer nuclear hormone receptor-targeting compounds” (Nuvation Bio Inc., priority 2021, dated 2023).

What was measured:
[1] = molecular target: ER Alpha-ligand binding domain (LBD) (Homo sapiens (Human), UniProt P03372); assay: ER binding assay (LanthaScreen TR-FRET ER Alpha Competitive Binding); conditions: Fluormone ES2 Green tracer 3 nM, 2 h room temperature
Method: ER binding assay: ERα binding was assessed using the LanthaScreen® TR-FRET ER Alpha Competitive Binding kit from ThermoFisherScientific. In this assay, a terbium-labeled anti-GST antibody was used to indirectly label GST-tagged ER Alpha-ligand binding domain (LBD) by binding to its GST tag. Competitive binding to the ER Alpha-LBD (GST) was detected by a test compound's ability to displace a fluorescent ligand (Fluormone™ ES2 Green tracer) from the ER Alpha-LBD (GST), which results in a loss of FRET signal between the Tb-anti-GST antibody and the tracer. Briefly, to assess ER binding of the DDC compounds, the test compounds (top dose 10 μM, 4 fold serial dilution, 8 point dose response) and controls were transferred to the assay plate. The Fluormone™ ES2 Green tracer (3 nM final concentration with assay buffer) was added to the assay plate. This was followed by addition of a mixture of the ER Alpha-LBD (GST) and terbium anti-GST antibody. After a 2 h incubation period at room temperature, the plate was read on the Envision plate reader and the TR-FRET ratio of 520:495 emissions were calculated and used to determine the IC50 from a dose response curve of the compound.

[2] = molecular target: ER (Homo sapiens (Human), UniProt P03372); assay: ER antagonism assay; type: cell-based; conditions: SK-BR-3 cells transfected with ERE plasmid and ER, 100 nM β-Estradiol, 24 h
ER, sequence (P03372 whole entry, looked up): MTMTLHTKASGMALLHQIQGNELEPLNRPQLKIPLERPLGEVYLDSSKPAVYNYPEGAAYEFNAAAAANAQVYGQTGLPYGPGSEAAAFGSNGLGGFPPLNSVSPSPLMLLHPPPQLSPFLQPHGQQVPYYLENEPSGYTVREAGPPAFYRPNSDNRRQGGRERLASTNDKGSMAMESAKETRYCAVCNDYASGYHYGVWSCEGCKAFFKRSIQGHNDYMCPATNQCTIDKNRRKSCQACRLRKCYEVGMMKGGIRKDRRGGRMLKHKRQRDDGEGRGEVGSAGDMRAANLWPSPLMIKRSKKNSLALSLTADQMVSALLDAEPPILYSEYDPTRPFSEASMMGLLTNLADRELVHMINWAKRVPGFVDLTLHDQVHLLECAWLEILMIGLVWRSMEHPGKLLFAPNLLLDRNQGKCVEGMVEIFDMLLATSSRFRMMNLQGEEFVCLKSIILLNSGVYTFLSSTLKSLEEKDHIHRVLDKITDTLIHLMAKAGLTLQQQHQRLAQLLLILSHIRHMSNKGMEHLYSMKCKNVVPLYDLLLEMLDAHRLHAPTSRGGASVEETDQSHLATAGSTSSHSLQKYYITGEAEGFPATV
Method: ER antagonism assay: To evaluate ER antagonist activity, SK-BR-3 cells were seeded at a density of 30000 cells/well in the assay plate. The assay plate was then incubated at 37° C., 5% CO2 for 24 h. A mixture of ERE plasmid and ER in opti-MEM media was incubated with lipofectamine 3000 in Opti-MEM media and incubated at room temperature for 15 mins. 10 μl of this transfection mix was added to each well of the assay plate and the assay plate was incubated at 37° C., 5% CO2 for 24 h. 100 nM β-Estradiol in 10 μL medium or 10 μL medium (control wells) was added to corresponding wells of assay plate and incubated at 37° C. 5% CO2 for 24 h. After the incubation period, 50 μl of Dual-glo luciferase reagent was added to the assay plate and mixed at room temperature for 20 mins on an orbital shaker, before reading out on the EnVision plate reader. 50 μL of Stop & Glo reagent was added to assay plate, mixed at room temperature for 20 minutes, and read on the Envision plate reader.

[3] = system: MDAMB361 cells; assay: Cell viability assay, MDAMB361; type: cell-based; conditions: Homo sapiens, MDA-MB-361, 144 h, read-out: MDA-MB-361 (GI50, nM)
Method: (§1) Cell viability assay: LNCap, 22Rv1, MCF7, MDAMB361, T47D, and IEC6 cells are seeded at a density of 500-2000 cells/well in 96 well plates, and a ‘T0’ (timepoint 0) was included along with the assay plate. The plates are then incubated at 37° C., 5% CO2 in a cell culture incubator overnight. On the next day, the ‘T0’ plate was assayed using CellTiterGlo (Promega, Inc) according to the manufacturer's instructions. The appropriate compounds are diluted in DMSO and added to the assay plate (final DMSO concentration of 0.1-0.2%) on the next day. The assay plates are incubated for 6 days at 37° C., 5% CO2. After the incubation period, the plates are assayed using CellTiterGlo (Promega, Inc) according to the manufacturer's instructions and luminescence was read on the EnVision plate reader. Inhibition of the tested compounds was determined by the following formula: Inhibition rate (%)=(1−(RLU compound−RLU day0)/(RLU control−RLU day0))*100%. GraphPadPrism was used to analyze the data and determine GI50/IC50 values.

[4] = system: MCF7 cells; assay: Cell viability assay, MCF7; type: cell-based; conditions: Homo sapiens, MCF7, 144 h, read-out: MCF7 (GI50, nM)
Method: as §1

[5] = system: T47D cells; assay: Cell viability assay, T47D; type: cell-based; conditions: Homo sapiens, T47D, 144 h, read-out: T47D (GI50, nM)
Method: as §1

[6] = system: LNCap cells; assay: Cell viability assay, LNCap; type: cell-based; conditions: Homo sapiens, LNCaP, 144 h, read-out: LNCap (GI50, nM)
Method: as §1

[7] = system: IEC6 cells; assay: Cell viability assay, IEC6; type: cell-based; conditions: Rattus norvegicus, IEC-6, 144 h, read-out: IEC-6 (IC50, nM)
Method: as §1

ER Alpha-ligand binding domain (LBD), sequence (P03372 whole entry, looked up, the tested form may be a part): as the sequence (P03372 whole entry, looked up) above

| SMILES | IC50 [1] | IC50 [2] | GI50 [3] | GI50 [4] | GI50 [5] | GI50 [6] | IC50 [7] |
| --- | --- | --- | --- | --- | --- | --- | --- |
| CCc1c2c(nc3ccc(OC(=O)N4CCN(CCCCCCOc5cc(F)c([C@@H]6c7[nH]c8ccccc8c7C[C@@H](C)N6CC(C)(C)F)c(F)c5)CC4)cc13)-c1cc3c(c(=O)n1C2)COC(=O)[C@]3(O)CC [Compound 2, (S)-4,11-diethyl-4-hydroxy-3,14-dioxo-3,4,12,14-tetrahydro-1H-pyrano[3′,4′:6,7]indolizino[1,2-b]quinolin-9-yl 4-(6-(3,5-difluoro-4-((1R,3R)-2-(2-fluoro-2-methylpropyl)-3-methyl-2,3,4,9-tetrahydro-1H-pyrido[3,4-b]indol-1-yl)phenoxy)hexyl)piperazine-1-carboxylate] | < 10 nM | 10 to 500 nM | 10 to 500 nM | 10 to 500 nM |  |  |  |
| CC[C@@]1(O)C(=O)OCc2c1cc1n(c2=O)Cc2cc3c(CN(C)C)c(OC(=O)N4[C@H](C)CN(CCCCCCN(C)c5ccc([C@H]6C[C@@]7(C)[C@@H](CC[C@]7(OC(C)=O)C(C)=O)[C@@H]7CCC8=CC(=O)CCC8=C76)cc5)C[C@H]4C)ccc3nc2-1 [Compound 16, (S)-10-((Dimethylamino)methyl)-4-ethyl-4-hydroxy-3,14-dioxo-3,4,12,14-tetrahydro-1H-pyrano[3′,4′:6,7]indolizino[1,2-b]quinolin-9-yl (2R,6R)-4-(6-((4-((8S,11R,13S,14S,17R)-17-acetoxy-17-acetyl-13-methyl-3-oxo-2,3,6,7,8,11,12,13,14,15,16,17-dodecahydro-1H-cyclopenta[a]phenanthren-11-yl)phenyl)(methyl)amino)hexyl)-2,6-dimethylpiperazine-1-carboxylate] |  |  | > 1000 nM | 10 to 500 nM | 10 to 500 nM | 501 to 1000 nM | > 1000 nM |
| CCc1c2c(nc3ccc(OC(=O)N4CCN(C(=O)CCCCCOc5cc(F)c([C@@H]6c7[nH]c8ccccc8c7C[C@@H](C)N6CC(C)(C)F)c(F)c5)CC4)cc13)-c1cc3c(c(=O)n1C2)COC(=O)[C@]3(O)CC [Compound 1, (S)-4,11-diethyl-4-hydroxy-3,14-dioxo-3,4,12,14-tetrahydro-1H-pyrano[3′,4′:6,7]indolizino[1,2-b]quinolin-9-yl 4-(6-(3,5-difluoro-4-((1R,3R)-2-(2-fluoro-2-methylpropyl)-3-methyl-2,3,4,9-tetrahydro-1H-pyrido[3,4-b]indol-1-yl)phenoxy)hexanoyl)piperazine-1-carboxylate] | < 10 nM | 10 to 500 nM | 10 to 500 nM | 10 to 500 nM |  |  |  |
| CC[C@@]1(O)C(=O)OCc2c1cc1n(c2=O)Cc2cc3c(CN(C)C)c(OC(=O)N4CCN(CCCCCCOc5cc(F)c(C6c7[nH]c8ccccc8c7CC(C)N6CC(C)(C)F)c(F)c5)CC4)ccc3nc2-1 (stereo in doubt) [Compound 13, (S)-10-((Dimethylamino)methyl)-4-ethyl-4-hydroxy-3,14-dioxo-3,4,12,14-tetrahydro-1H-pyrano[3′,4′:6,7]indolizino[1,2-b]quinolin-9-yl 4-(6-(3,5-difluoro-4-((1S,3S)-2-(2-fluoro-2-methylpropyl)-3-methyl-2,3,4,9-tetrahydro-1H-pyrido[3,4-b]indol-1-yl)phenoxy)hexyl)piperazine-1-carboxylate] | 10 to 500 nM | 10 to 500 nM | 10 to 500 nM | 10 to 500 nM |  |  | 501 to 1000 nM |
